In US11180484B2, “Pyrazole derivatives as plasma kallikrein inhibitors” (KALVISTA PHARMACEUTICALS LIMITED, priority 2016, dated 2021):

Assays:
[1] = Intrinsic clearance in human liver microsomes; assay type: in vitro ADME; conditions: human liver microsomes 0.5 mg/mL, 5 μM test compound, 37° C.; read-out: Human liver microsome (Clint μL/min/mg protein)
Description: Rat or human liver microsomes (0.5 mg/mL; Corning) were incubated with 5 μM test compound at 37° C. on a shaking platform (150 rpm). Samples were taken at 0, 6, 12, 18, 24 and 60 min and test compound concentrations were determined by LCMS against a calibration curve.

[2] = Predicted plasma clearance (Clp), well-stirred model, rat; assay type: in vitro ADME; conditions: percentage of hepatic blood flow
[3] = In vitro permeability, Caco-2 model for oral absorption; assay type: in vitro ADME; conditions: human, apical to basolateral, 50 μM test compound, 37° C.
Outline: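 Caco-2 monolayers grown on collagen inserts for 3 days, with 50 μM compound added apically and incubated 1 hour at 37° C with shaking. Apical-to-basolateral transport measured by LCMS in both compartments. Monolayer integrity checked by TEER before and after, and by Lucifer Yellow flux.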

[4] = Plasma protein binding (PPB), rapid equilibrium dialysis, human plasma; assay type: in vitro ADME; conditions: 5 μM test compound, dialysis 5 hrs at 37° C.
[5] = target: plasmin (Homo sapiens (Human), UniProt P00747); test: Determination of enzyme selectivity: plasmin; assay type: biochemical; conditions: substrate at Km concentration
[6] = Predicted plasma clearance (Clp), well-stirred model, human; assay type: in vitro ADME; conditions: percentage of hepatic blood flow
[7] = target: thrombin (Homo sapiens (Human), UniProt P00734); test: Determination of enzyme selectivity: thrombin; assay type: biochemical; conditions: substrate at Km concentration

plasmin, sequence (P00747 581-810): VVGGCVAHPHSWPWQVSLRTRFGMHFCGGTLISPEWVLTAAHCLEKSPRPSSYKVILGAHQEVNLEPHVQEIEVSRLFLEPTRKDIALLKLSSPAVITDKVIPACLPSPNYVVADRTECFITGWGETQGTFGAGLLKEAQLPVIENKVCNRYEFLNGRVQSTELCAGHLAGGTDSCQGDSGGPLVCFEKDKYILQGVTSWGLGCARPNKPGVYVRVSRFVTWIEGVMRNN
plasmin, sequence (P00747 97-580): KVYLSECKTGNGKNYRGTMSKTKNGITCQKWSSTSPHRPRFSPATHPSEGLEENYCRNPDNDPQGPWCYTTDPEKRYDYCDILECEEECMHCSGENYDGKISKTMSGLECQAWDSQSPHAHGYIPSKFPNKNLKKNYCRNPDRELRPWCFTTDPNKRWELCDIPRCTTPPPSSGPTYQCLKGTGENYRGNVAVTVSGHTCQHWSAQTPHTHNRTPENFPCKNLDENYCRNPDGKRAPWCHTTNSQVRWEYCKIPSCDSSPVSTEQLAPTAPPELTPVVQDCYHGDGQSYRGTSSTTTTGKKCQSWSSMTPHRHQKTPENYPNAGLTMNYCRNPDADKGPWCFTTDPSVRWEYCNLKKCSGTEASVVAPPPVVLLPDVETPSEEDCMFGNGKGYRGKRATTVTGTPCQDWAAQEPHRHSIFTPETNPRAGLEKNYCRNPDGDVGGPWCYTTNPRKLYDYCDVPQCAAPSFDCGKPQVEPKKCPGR

Row | microsomal CLint at 5 μM [1] | Predicted in vivo rat Clp (% LBF) [2] | Papp at 1 h, 50 μM [3] | fraction unbound at 5 h, 5 μM [4] | IC50 [5] | Predicted in vivo human Clp (% LBF) [6] | IC50 [7] | SMILES
1 | 29 µL/min/mg | 5 % LBF | 6 ×10⁻⁶ cm/s | 0.22 | 31.2 µM | 21 % LBF | 19.3 µM | COCc1nn(Cc2ccc(Cn3ccccc3=O)cc2)cc1C(=O)NCc1c(-n2cnnn2)ccc(OC)c1F [Example 39, N-{[2-Fluoro-3-methoxy-6-(1,2,3,4-tetrazol-1-yl)phenyl]methyl}-3-(methoxymethyl)-1-({4-[(2-oxopyridin-1-yl)methyl]phenyl}methyl)pyrazole-4-carboxamide]
2 | 4 µL/min/mg | 3 % LBF | 19 ×10⁻⁶ cm/s | 0.09 | 12 µM | 1 % LBF | 7.31 µM | COCc1nn(Cc2cnc(N3CCCC3)nc2)cc1C(=O)NCc1c(-n2cnnn2)ccc(OC)c1F [Example 79, N-{[2-Fluoro-3-methoxy-6-(1,2,3,4-tetrazol-1-yl)phenyl]methyl}-3-(methoxymethyl)-1-{[2-(pyrrolidin-1-yl)pyrimidin-5-yl]methyl}pyrazole-4-carboxamide]
